Data published in US20120083522A1, “MODULATION OF INFLAMMATORY RESPONSES BY FACTOR XI” (Isis Pharmaceuitcals, inc., priority 2009, published 2012).
In the oligonucleotide strings, read from the 5' end, every base follows the letter of its sugar. An asterisk marks phosphorothioate; unmarked linkages are phosphodiester. Other units and linkages are bracketed, terminal groups are in braces. A string of capitals states the bases alone. e = 2'-O-(2-methoxyethyl) (MOE); [5mC] = 5-methylcytosine; d = 2'-deoxy (DNA)

Experiments:
human Factor XI mRNA [1] = experiment: Dose-dependent antisense inhibition in HepG2 cells, lipofectin (Example 2); type: cell-based; settings: approximately 16 hours
Procedure: Cells were plated at a density of 10,000 cells per well and transfected using lipofectin reagent with 9.375 nM, 18.75 nM, 37.5 nM, 75 nM, and 150 nM concentrations of antisense oligonucleotide, as specified in Table 3. After a treatment period of approximately 16 hours, RNA was isolated from the cells and Factor XI mRNA levels were measured by quantitative real-time PCR. Human Factor XI primer probe set RTS 2966 (forward sequence: […], incorporated herein as SEQ ID NO: 3; reverse sequence: […], incorporated herein as SEQ ID NO: 4; probe sequence: TTGTCTACTGAAGCACACCCAAACAGGGAX, wherein X is the fluorophore, incorporated herein as SEQ ID NO: 5) was used to measure mRNA levels. Factor XI mRNA levels were adjusted according to total RNA content, as measured by RIBOGREEN®. Results are presented as percent inhibition of Factor XI, relative to untreated control cells.

human Factor XI mRNA [2] = experiment: Antisense inhibition in HepG2 cells by microwalk gapmers, 75 nM, lipofectin (Example 3); type: cell-based; settings: HepG2 cells, 75 nM
Summary of the method: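 HepG2 cells (10,000 per well) were transfected with 75 nM gapmer using lipofectin and treated for about 24 h. Factor XI mRNA was quantified by real-time PCR, normalized to RiboGreen total RNA and expressed as percent inhibition versus untreated controls.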

human Factor XI mRNA [3] = experiment: Dose-dependent inhibition in HepG2 cells, lipofectin (Example 4); type: cell-based; settings: 16 hours
Summary of the method: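 Read-out was percent inhibition of Factor XI mRNA relative to untreated controls, by qRT-PCR (RTS 2966) adjusted for RIBOGREEN-measured total RNA. Cells received antisense oligonucleotide at 9.375 to 75 nM (four levels) via lipofectin. Treatment lasted approximately 16 hours, with plating at 10,000 cells per well.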

human Factor XI mRNA [4] = experiment: Dose-dependent inhibition in HepG2 cells, electroporation (Example 4); type: cell-based; settings: 16 hours
Summary of the method: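 HepG2 cells electroporated with 0.7, 2.2, 6.7 or 20 μM antisense gapmer and harvested after ~16 h. Factor XI mRNA quantified by qRT-PCR (primer probe set RTS 2966), normalised to total RNA (RIBOGREEN). Reported as percent inhibition versus untreated control cells.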

human Factor XI mRNA [5] = experiment: Antisense inhibition in HepG2 cells by microwalk gapmers, 8,000 nM, electroporation (Example 14); type: cell-based; settings: HepG2 cells, 8,000 nM
Summary of the method: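 Percent reduction of Factor XI transcript, relative to untreated controls, by real-time PCR with RIBOGREEN normalisation. Readout taken about 24 h after electroporating HepG2 cells with 8,000 nM oligonucleotide. Gapmers are 5-10-5, 5-8-5 or 6-8-6 MOE wings, phosphorothioate backbone.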

[6] = Tolerability in Sprague-Dawley rats: hematology assays (Example 23); type: in vivo; set-up: RBC / WBC / Neutrophil / Lymphocyte / Platelets: unit not given here; settings: blood
[7] = Tolerability in CD1 mice: body and organ weights (Example 21); type: in vivo; settings: 50 mg/kg s.c. twice per week for 6 weeks, percentage of the body weight
Procedure: Body weight was measured at the onset of the study and subsequently twice per week. The body weights of the mice are presented in Table 87 and are expressed increase in grams over the PBS control weight taken before the start of treatment. Liver, spleen, and kidney weights were measured at the end of the study, and are also presented in Table 87 as percentage of the body weight.

[8] = Tolerability in CD1 mice: body and organ weight (Example 25); type: in vivo; settings: 50 mg/kg s.c. twice per week for 6 weeks; for Kidney weight as percentage of body weight / Liver weight as percentage of body weight / Spleen weight as percentage of body weight: end of study

Row | Substance | RBC [6] | WBC [6] | Body weight (increase over PBS control weight before start of treatment) [8] [g] | Kidney weight as percentage of body weight [8] [%] | Liver weight as percentage of body weight [8] [%] | Spleen weight as percentage of body weight [8] [%] | also measured
1 | 412206 (antisense e[5mC]*e[5mC]*eG*eT*eG*d[5mC]*dA*dT*d[5mC]*dT*dT*dT*d[5mC]*dT*dT*eG*eG*e[5mC]*eA*eT) [compound 412206] |  |  |  |  |  |  | percent inhibition of Factor XI (human Factor XI mRNA [1]; 9.375 nM): 28%; percent inhibition of Factor XI (human Factor XI mRNA [1]; 18.75 nM): 44%; percent inhibition of Factor XI (human Factor XI mRNA [1]; 37.5 nM): 68%; percent inhibition of Factor XI (human Factor XI mRNA [1]; 75 nM): 80%; percent inhibition of Factor XI (human Factor XI mRNA [1]; 150 nM): 89%; % inhibition of human Factor XI mRNA levels (human Factor XI mRNA [2]; oligonucleotides targeted to nucleobases 738 to 762 of SEQ ID NO: 1): 93%; percent inhibition of Factor XI mRNA, relative to untreated control cells (human Factor XI mRNA [3]; 9.375 nM): 24%; percent inhibition of Factor XI mRNA, relative to untreated control cells (human Factor XI mRNA [3]; 18.75 nM): 47%; percent inhibition of Factor XI mRNA, relative to untreated control cells (human Factor XI mRNA [3]; 37.5 nM): 69%; percent inhibition of Factor XI mRNA, relative to untreated control cells (human Factor XI mRNA [3]; 75 nM): 86%; percent inhibition of Factor XI mRNA, relative to untreated control cells (human Factor XI mRNA [4]; 0.7 μM): 22%; percent inhibition of Factor XI mRNA, relative to untreated control cells (human Factor XI mRNA [4]; 2.2 μM): 39%; percent inhibition of Factor XI mRNA, relative to untreated control cells (human Factor XI mRNA [4]; 6.7 μM): 81%; percent inhibition of Factor XI mRNA, relative to untreated control cells (human Factor XI mRNA [4]; 20 μM): 94%; Percent inhibition of human Factor XI mRNA levels (human Factor XI mRNA [5]): 91%
2 | 412212 (antisense e[5mC]*e[5mC]*eG*eG*eG*dA*dT*dG*dA*dT*dG*dA*dG*dT*dG*e[5mC]*eA*eG*eA*eT) [compound 412212] |  |  |  |  |  |  | percent inhibition of Factor XI (human Factor XI mRNA [1]; 9.375 nM): 28%; percent inhibition of Factor XI (human Factor XI mRNA [1]; 18.75 nM): 45%; percent inhibition of Factor XI (human Factor XI mRNA [1]; 37.5 nM): 59%; percent inhibition of Factor XI (human Factor XI mRNA [1]; 75 nM): 73%; percent inhibition of Factor XI (human Factor XI mRNA [1]; 150 nM): 88%; % inhibition of human Factor XI mRNA levels (human Factor XI mRNA [2]; oligonucleotides targeted to nucleobases 1018 to 1042 of SEQ ID NO: 1): 89%
3 | 413476 (antisense eT*eT*eG*eA*eG*dA*dT*dT*d[5mC]*dT*dT*dT*dG*dG*dG*e[5mC]*e[5mC]*eA*eT*eT) [compound 413476] |  |  |  |  |  |  | percent inhibition of Factor XI (human Factor XI mRNA [1]; 9.375 nM): 26%; percent inhibition of Factor XI (human Factor XI mRNA [1]; 18.75 nM): 44%; percent inhibition of Factor XI (human Factor XI mRNA [1]; 37.5 nM): 64%; percent inhibition of Factor XI (human Factor XI mRNA [1]; 75 nM): 73%; percent inhibition of Factor XI (human Factor XI mRNA [1]; 150 nM): 82%; % inhibition of human Factor XI mRNA levels (human Factor XI mRNA [2]; oligonucleotides targeted to nucleobases 1062 to 1091 of SEQ ID NO: 1): 93%; percent inhibition of Factor XI mRNA, relative to untreated control cells (human Factor XI mRNA [3]; 9.375 nM): 24%; percent inhibition of Factor XI mRNA, relative to untreated control cells (human Factor XI mRNA [3]; 18.75 nM): 58%; percent inhibition of Factor XI mRNA, relative to untreated control cells (human Factor XI mRNA [3]; 37.5 nM): 62%; percent inhibition of Factor XI mRNA, relative to untreated control cells (human Factor XI mRNA [3]; 75 nM): 77%; percent inhibition of Factor XI mRNA, relative to untreated control cells (human Factor XI mRNA [4]; 0.7 μM): 40%; percent inhibition of Factor XI mRNA, relative to untreated control cells (human Factor XI mRNA [4]; 2.2 μM): 69%; percent inhibition of Factor XI mRNA, relative to untreated control cells (human Factor XI mRNA [4]; 6.7 μM): 88%; percent inhibition of Factor XI mRNA, relative to untreated control cells (human Factor XI mRNA [4]; 20 μM): 93%
4 | ISIS 416848: gapmer of Table 8 (antisense e[5mC]*eA*e[5mC]*eA*eG*dT*dT*dT*d[5mC]*dT*dG*dG*d[5mC]*dA*dG*eG*e[5mC]*e[5mC]*eT*e[5mC]) | 6.0 | 17 |  |  |  |  | 
5 | ISIS 416851: gapmer of Table 8 (antisense eG*eT*eG*e[5mC]*eA*d[5mC]*dA*dG*dT*dT*dT*d[5mC]*dT*dG*dG*e[5mC]*eA*eG*eG*e[5mC]) | 7.4 | 11 |  |  |  |  | 
6 | ISIS 416852: gapmer of Table 8 (antisense eT*eG*eG*eT*eG*d[5mC]*dA*d[5mC]*dA*dG*dT*dT*dT*d[5mC]*dT*eG*eG*e[5mC]*eA*eG) | 7.2 | 13 |  |  |  |  | 
7 | ISIS 416856: gapmer of Table 8 (antisense eG*eG*e[5mC]*eA*eT*dT*dG*dG*dT*dG*d[5mC]*dA*d[5mC]*dA*dG*eT*eT*eT*e[5mC]*eT) | 7.7 | 19 |  |  |  |  | Kidney weight [7]: 1.4%
8 | ISIS 416859: gapmer of Table 8 (antisense eG*eA*e[5mC]*eG*eG*d[5mC]*dA*dT*dT*dG*dG*dT*dG*d[5mC]*dA*e[5mC]*eA*eG*eT*eT) | 7.8 | 16 |  |  |  |  | 
9 | ISIS 416860: gapmer of Table 8 (antisense e[5mC]*eG*eG*eA*e[5mC]*dG*dG*d[5mC]*dA*dT*dT*dG*dG*dT*dG*e[5mC]*eA*e[5mC]*eA*eG) | 7.8 | 17 |  |  |  |  | 
10 | ISIS 416861: gapmer of Table 8 (antisense eG*e[5mC]*eG*eG*eA*d[5mC]*dG*dG*d[5mC]*dA*dT*dT*dG*dG*dT*eG*e[5mC]*eA*e[5mC]*eA) | 7.7 | 15 |  |  |  |  | 
11 | ISIS 416863: gapmer of Table 8 (antisense e[5mC]*eA*eG*e[5mC]*eG*dG*dA*d[5mC]*dG*dG*d[5mC]*dA*dT*dT*dG*eG*eT*eG*e[5mC]*eA) | 7.6 | 17 |  |  |  |  | 
12 | ISIS 416866: gapmer of Table 8 (antisense e[5mC]*eT*eG*eG*e[5mC]*dA*dG*d[5mC]*dG*dG*dA*d[5mC]*dG*dG*d[5mC]*eA*eT*eT*eG*eG) | 7.8 | 20 |  |  |  |  | 
13 | ISIS 416867: gapmer of Table 8 (antisense eA*e[5mC]*eT*eG*eG*d[5mC]*dA*dG*d[5mC]*dG*dG*dA*d[5mC]*dG*dG*e[5mC]*eA*eT*eT*eG) | 7.8 | 14 |  |  |  |  | 
14 | ISIS 445498: microwalk gapmer of Table 51 (antisense eG*eG*eT*eG*e[5mC]*eA*d[5mC]*dA*dG*dT*dT*dT*d[5mC]*dT*eG*eG*e[5mC]*eA*eG*eG) |  |  | 10 | 1.6 | 6 | 0.5 | 
15 | ISIS 445504: microwalk gapmer of Table 51 (antisense eG*eG*e[5mC]*eA*eT*eT*dG*dG*dT*dG*d[5mC]*dA*d[5mC]*dA*eG*eT*eT*eT*e[5mC]*eT) |  |  | 11 | 1.6 | 6 | 0.4 | 
16 | ISIS 445505: microwalk gapmer of Table 51 (antisense e[5mC]*eG*eG*e[5mC]*eA*eT*dT*dG*dG*dT*dG*d[5mC]*dA*d[5mC]*eA*eG*eT*eT*eT*e[5mC]) |  |  | 12 | 1.5 | 6 | 0.5 | 
17 | ISIS 445509: microwalk gapmer of Table 51 (antisense e[5mC]*eG*eG*eA*e[5mC]*eG*dG*d[5mC]*dA*dT*dT*dG*dG*dT*eG*e[5mC]*eA*e[5mC]*eA*eG) |  |  | 10 | 1.6 | 6 | 0.5 | 
18 | ISIS 445513: microwalk gapmer of Table 51 (antisense eG*e[5mC]*eA*eG*e[5mC]*eG*dG*dA*d[5mC]*dG*dG*d[5mC]*dA*dT*eT*eG*eG*eT*eG*e[5mC]) |  |  | 9 | 1.6 | 5 | 0.4 | 
19 | ISIS 445530: microwalk gapmer of Table 51 (antisense eG*e[5mC]*eA*eT*eT*dG*dG*dT*dG*d[5mC]*dA*d[5mC]*dA*eG*eT*eT*eT*e[5mC]) |  |  | 11 | 1.5 | 6 | 0.5 | 
20 | ISIS 445532: microwalk gapmer of Table 51 (antisense e[5mC]*eG*eG*e[5mC]*eA*dT*dT*dG*dG*dT*dG*d[5mC]*dA*e[5mC]*eA*eG*eT*eT) |  |  | 10 | 1.6 | 6 | 0.4 | 
